Laboratory results taken from patent publication US6362173B1, “Methods for treating psychosis associated with cocaine addiction with glucocorticoid receptor antagonists” (The Board of Trustees of the Leland Stanford Junior …, priority 1997, dated 2002).

How the values were obtained:
[1] = target: T1, glucocorticoid (GR) receptor (Homo sapiens, UniProt P04150); conditions: cited from earlier work
T1 sequence (P04150 1-777): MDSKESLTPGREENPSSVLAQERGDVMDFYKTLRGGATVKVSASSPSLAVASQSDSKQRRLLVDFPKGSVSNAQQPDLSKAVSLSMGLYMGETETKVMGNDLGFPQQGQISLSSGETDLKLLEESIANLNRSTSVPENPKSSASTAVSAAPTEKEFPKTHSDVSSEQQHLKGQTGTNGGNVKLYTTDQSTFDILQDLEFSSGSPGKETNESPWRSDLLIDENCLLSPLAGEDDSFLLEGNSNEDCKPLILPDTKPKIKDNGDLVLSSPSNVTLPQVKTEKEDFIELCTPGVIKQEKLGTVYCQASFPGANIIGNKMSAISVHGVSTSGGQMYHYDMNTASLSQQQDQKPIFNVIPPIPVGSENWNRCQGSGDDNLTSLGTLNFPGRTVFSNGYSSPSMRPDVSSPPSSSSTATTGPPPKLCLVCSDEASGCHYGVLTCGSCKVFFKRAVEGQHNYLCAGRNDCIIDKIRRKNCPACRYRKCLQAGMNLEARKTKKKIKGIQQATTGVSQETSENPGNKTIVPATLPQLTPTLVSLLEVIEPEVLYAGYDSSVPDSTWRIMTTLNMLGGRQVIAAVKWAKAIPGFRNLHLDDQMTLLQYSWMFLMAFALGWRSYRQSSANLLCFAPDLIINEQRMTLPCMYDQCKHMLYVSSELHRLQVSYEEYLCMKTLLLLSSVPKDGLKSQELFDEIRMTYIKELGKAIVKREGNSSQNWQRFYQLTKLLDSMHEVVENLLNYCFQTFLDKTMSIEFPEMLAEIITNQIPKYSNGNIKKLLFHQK

[2] = test system: patients with chronic severe depression; conditions: about 2.5 to 4.4 mg/kg per day, up to eight weeks; four patients; cited from earlier work
[3] = test system: patients with psychotic major depression; assay: Double-blind placebo-controlled cross-over study of mifepristone in psychotic major depression; assay type: in vivo, human
Description: The study requires a nine day, closely observed hospital stay. Individuals included in this study were diagnosed as psychotic depressives using criteria as set forth by the DSM-IV, as described above. This diagnosis was confirmed by two psychiatrists. All are between the ages of 18 and 75. Apart from hypercortisolemia, they have no major medical problems. They have no signs of Cushings Syndrome. No […] of childbearing potential are included in the study. Individuals admitting to having used illicit drugs within a month prior to admission for the study are excluded. Individuals admitting to drinking in excess of two ounces of alcohol daily are excluded from the study. No anti-psychotic medication was taken within three days of entering the study. While, concurrent anti-depressant was not a criteria used to excluded anyone from the study, no individual was started on an anti-depressant medication while participating in the study. All patients gave their written consent to a protocol approved by the Human Subjects Committee at Stanford University Medical Center. All participants were given the Hamilton Rating Scale for Depression (HAM-D, Hamilton (1962) J. Neurol. Psychiatry, supra, discussed above) and the Structured Clinical Interview for DSM-IV Axis I mood disorders tests (as described above). Only individuals with a score greater than 21 on the HAM-D test continued in the study (a HAM-D score of >21 indicates moderate to severe depression). […] Formal psychiatric assessment, including the HAM-D rating scale (Overall (1962) supra; Kaplan (1995), supra, discussed above), the Brief Psychiatric Rating Scale (BPRS) (Overall (1962) supra; Kaplan (1995), supra, discussed above) and the […] (GAF) evaluation (DSM-IV, supra, pages 30 to 31; Kaplan, ed. (1995), supra) was carried out on days one, three, five, seven and nine of the study at 10:00 AM (at 1000 hours). A paragraph recall test (see below) was given at 11:30 AM (at 1130 hours) on days one, five and nine. Cortisol levels were measured serially every half hour from […] to 4:00 PM (1300 to 1600 hours) on days one, five and nine. Plasma ACTH and Plasma HVA was measured serially every hour from 1300 to 1600 on days one, five and nine. Routine biological and hematological studies were conducted daily, particularly to screen for evidence of relative adrenal insufficiency, i.e., hypoglycemia, eosinophilia. One means used to assess/measure improvement, or amelioration of psychosis in the study was the “Wallach Recognition Test” (a paragraph recall test). Newly evaluated individuals with an initial diagnosis of psychotic major depression, diagnosed as described above, were given a recognition task adapted from Wallach (1980) supra. Subjects listened to a taped recording of a sixteen-word list presented at the rate of one word every ten seconds. The-subject repeats each of the sixteen words and is asked to think of what the words mean to them. Following the presentation of the list, the subject engages in a twenty minute motor distraction task. The subject then listens to a fifty-word list containing the sixteen original target words plus thirty-four background distraction words. The subject then is asked to discern between target words and distractors. Sixteen newly admitted patients with an admitting diagnosis of psychotic major depression confirmed by two psychiatrists were enrolled in the study. Each patient conformed with all of the above described criteria. […] In the patients administered mifepristone, three two hundred milligram tablets per day were given for four days. […] The tablets were manufactured by Shanghai HuaLian Pharmaceuticals Co., Ltd., Shanghai, China (currently the sole commercial source of RU486). Both patients and the investigators are “blind” as to which compound (test mifepristone or placebo) the patient received.

progesterone receptor = target: T2, progesterone receptor (Homo sapiens, UniProt P06401); conditions: cited from earlier work
T2 sequence (P06401 1-933): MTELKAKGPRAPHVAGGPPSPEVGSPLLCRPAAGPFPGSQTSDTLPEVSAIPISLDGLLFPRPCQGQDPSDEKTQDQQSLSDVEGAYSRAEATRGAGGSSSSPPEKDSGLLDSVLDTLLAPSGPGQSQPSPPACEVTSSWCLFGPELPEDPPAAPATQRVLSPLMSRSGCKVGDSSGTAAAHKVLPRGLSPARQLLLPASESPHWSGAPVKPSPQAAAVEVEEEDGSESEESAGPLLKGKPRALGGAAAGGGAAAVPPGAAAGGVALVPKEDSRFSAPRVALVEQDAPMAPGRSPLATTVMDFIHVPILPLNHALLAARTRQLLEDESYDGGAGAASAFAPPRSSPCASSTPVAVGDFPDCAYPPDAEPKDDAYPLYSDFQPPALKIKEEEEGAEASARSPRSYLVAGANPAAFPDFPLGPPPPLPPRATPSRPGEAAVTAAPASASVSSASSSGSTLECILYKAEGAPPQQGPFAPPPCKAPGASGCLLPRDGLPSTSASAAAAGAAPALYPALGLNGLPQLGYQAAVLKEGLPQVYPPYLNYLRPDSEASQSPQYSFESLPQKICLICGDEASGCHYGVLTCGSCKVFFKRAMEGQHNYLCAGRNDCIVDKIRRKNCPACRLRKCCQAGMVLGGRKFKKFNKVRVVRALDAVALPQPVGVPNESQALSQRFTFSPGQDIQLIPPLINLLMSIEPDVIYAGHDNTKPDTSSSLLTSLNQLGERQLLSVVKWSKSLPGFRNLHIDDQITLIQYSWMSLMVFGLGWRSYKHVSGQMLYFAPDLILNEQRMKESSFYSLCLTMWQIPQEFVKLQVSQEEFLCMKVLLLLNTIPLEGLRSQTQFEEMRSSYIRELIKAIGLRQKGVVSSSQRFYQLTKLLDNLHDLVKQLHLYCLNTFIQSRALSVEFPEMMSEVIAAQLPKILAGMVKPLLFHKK

[4] = one study; cited from earlier work
[5] = test system: patients with severe Cushing Syndrome; conditions: 400 to 800 mg per day; adrenal cancers and ectopic ACTH secretion from lung cancer; cited from earlier work

In the case of CC#C[C@]1(O)CC[C@H]2[C@@H]3CCC4=CC(=O)CCC4=C3[C@@H](c3ccc(OCCN(C)C)cc3)C[C@@]21C [RU009, 11-beta-(4 dimethyl-amninoethoxyphenyl)-17-alpha-(propynyl-17beta-hydroxy-4,9-estradien-3-one)], the GR antagonist activity [1] is listed as “GR antagonist effects”.
For CC#C[C@]1(O)CC[C@H]2[C@@H]3CCC4=CC(=O)CCC4=C3[C@@H](c3ccc(N(C)C)cc3)C[C@@]21C [mifepristone, 17-beta-hydroxy-11-beta-(4-dimethyl-aminophenyl)-17-alpha-(1-propynyl)-estra-4,9-dien-3-one], the response to treatment [2] is given as “responded to treatment”, the “adverse effects reported by patient or observed by raters or staff” value ([3]; 600 mg per day orally, four days) is given as “no adverse effects” and the psychiatric condition ([3]; 600 mg per day orally, four days, three patients completed, blind not broken) is given as “significant improvement”. For the same compound, the “Wallach Recognition Test: amelioration of psychosis” value ([3]; all individuals who received mifepristone) was “showed an amelioration of their psychosis”, the “HAM-D score after treatment” value ([3]; average, score after decline) was “about 13.5” and the “HAM-D score before treatment” value ([3]; average, starting score) was “about 26”. The “Brief Psychiatric Rating Scale (BPRS) score after treatment” value ([3]; score after decline) was “about 29.5”, the “Clinical Global Impression (CGI scale) score after treatment” value ([3]; score after drop, mildly depressed) was “about 3” and the “Brief Psychiatric Rating Scale (BPRS) score before treatment” value ([3]; starting score) was “about 40.5”. The “Clinical Global Impression (CGI scale) score before treatment” value ([3]; starting score, indicating markedly depressed) was “about 5”, the “progesterone receptor antagonist activity” value (progesterone receptor) was “powerful antagonist” and the “fraction of the daily dose excreted in the urine” value [4] was “less than 0.5%”. For the same compound, the GR antagonist activity [1] was “powerful antagonist” and the “effect on acute psychosis” value [5] was “useful in rapidly reversing acute psychosis”.
